Reference: patent publication US6964949B2, “Pharmaceutical compositions for promoting the growth of gram-positive bacilli and increasing the acidity in the vagina and the use thereof” (Shanghai Jiao Da Onlly Co., Ltd., priority 2000, dated 2005)

What was measured:
Format in all cases: cell-based
Conditions in all cases: 10.0% saccharide, 1.0% yeast extract, 1.6% xanthan gum (dextrin 0.5%, starch none), pH 6.2, candle jar, 37° C.
[1] = tested on: Gram-negative cocci; assay: Experiment Example 2: comparison of saccharides, specimen culture, Gram smear
Excerpt: (§1) • (1)The preparation of the compositions: Different saccharides were used respectively to prepare the following compositions according to the methods mentioned above: glucose, fructose, galactose, mannose, maltose, sucrose, lactose, lactulose, mycose, cellobiose, melibiose, melitose, malto-oligosaccharide, isomaltooligosaccharide and fructooligosaccharide, dextrin, starch, and glycogen: • A. 5% glucose, 1.0% yeast extract, 1.6% xanthan gum, pH adjusted to 6.2; • B. 5% fructose, 1.0% yeast extract, 1.6% xanthan gum, pH adjusted to 6.2; • C. 5% galactose, 1.0% yeast extract, 1.6% xanthan gum, pH adjusted to 6.2; • D. 5% mannose, 1.0% yeast extract, 1.6% xanthan gum, pH adjusted to 6.2; • E. 10.0% maltose, 1.0% yeast extract, 1.6% xanthan gum, pH adjusted to 6.2; • F. 10.0% sucrose, 1.0% yeast extract, 1.6% xanthan gum, pH adjusted to 6.2; • G. 10.0% lactose, 1.0% yeast extract, 1.6% xanthan gum, pH adjusted to 6.2; • H. 10.0% lactulose, 1.0% yeast extract, 1.6% xanthan gum, pH adjusted to 6.2; • I. 10.0% cellobiose, 1.0% yeast extract, 1.6% xanthan gum, pH adjusted to 6.2; • J. 10.0% mycose, 1.0% yeast extract, 1.6% xanthan gum, pH adjusted to 6.2; • K. 10.0% melibiose, 1.0% yeast extract, 1.6% xanthan gum, pH adjusted to 6.2; • L. 10.0% melitose, 1.0% yeast extract, 1.6% xanthan gum, pH adjusted to 6.2; • M. 10.0% maltooligosaccharide, 1.0% yeast extract, 1.6% xanthan gum, pH adjusted to 6.2; • N. 10.0% isomaltooligosaccharide, 1.0% yeast extract, 1.6% xanthan gum, pH adjusted to 6.2; • O. 10.0% fructooligosaccharide, 1.0% yeast extract, 1.6% xanthan gum, pH adjusted to 6.2; • P. 10.0% dextrin, 1.0% yeast extract, 0.5% xanthan gum, pH adjusted to 6.2; • Q. 10.0% starch, 1.0% yeast extract, pH adjusted to 6.2; • R. 10.0% glycogen, 1.0% yeast extract, 1.6% xanthan gum, pH adjusted to 6.2. • (2)The preparation of the test tubes: The compositions prepared above were filled into test tubes, with each tube containing 5 ml, sterilized, and kept until use for experiment. • (3) Specimen suspension: Vaginal secretion was taken from one of the patients suffering from typical bacterial vagmosis with a cotton swab, then the swab was washed in 2 ml sterilized Trypcase-soy Broth immediately, and thus the specimen suspension was ready. […] Then the tubes were placed in a candle jar and cultivated at 37° C. After 24 hours and 48 hours' culture, culture samples were taken respectively from each of the tubes, then the Gram smears of the samples were observed and the pH values of culture samples were tested. […] Meanwhile the pH values in most of the composition tubes decreased to different levels. […] And maltose and sucrose exert better effect in promoting the growth of Gram-positive bacilli and the production of acids than that of the other kinds of oligosaccharides.

[2] = tested on: Gram-negative bacilli; assay: as above
Excerpt: as §1

[3] = tested on: Gram-positive cocci; assay: as above
Excerpt: as §1

[4] = tested on: Gram-positive bacilli; assay: as above
Excerpt: as §1

[5] = tested on: vaginal secretion specimen of a patient suffering from typical bacterial vaginosis; assay: Experiment Example 2: pH of culture samples (production of acids)
Excerpt: as §1

| Substance | Bacteria G − c (Gram-negative cocci), 24 hours-culture [1] | Bacteria G − c (Gram-negative cocci), 48 hours-culture [1] | Bacteria G − b (Gram-negative bacilli), 24 hours-culture [2] | Bacteria G − b (Gram-negative bacilli), 48 hours-culture [2] | Bacteria G + c (Gram-positive cocci), 24 hours-culture [3] | Bacteria G + c (Gram-positive cocci), 48 hours-culture [3] | Bacteria G + b (Gram-positive bacilli), 24 hours-culture [4] | Bacteria G + b (Gram-positive bacilli), 48 hours-culture [4] | pH, 24 hours-culture [5] | pH, 48 hours-culture [5] |
| --- | --- | --- | --- | --- | --- | --- | --- | --- | --- | --- |
| dextrin | G − c, − (No or less than one bacterium per field of version under oil-immersion lens) | G − c, − (No or less than one bacterium per field of version under oil-immersion lens) | G − b, ++ (About 10-99 bacteria per field of vision under oil-immersion lens) | G − b, + (1-9 bacteria per field of vision under oil-immersion lens) | G + c, + (1-9 bacteria per field of vision under oil-immersion lens) | G + c, − (No or less than one bacterium per field of version under oil-immersion lens) | G + b, +++ (About 100 bacteria or more per field vision under oil-immersion lens, even uncountable) | G + b, ++ (About 10-99 bacteria per field of vision under oil-immersion lens) | 6.2 | 5.8 |
| glycogen | G − c, − (No or less than one bacterium per field of version under oil-immersion lens) | G − c, − (No or less than one bacterium per field of version under oil-immersion lens) | G − b, ++ (About 10-99 bacteria per field of vision under oil-immersion lens) | G − b, ++ (About 10-99 bacteria per field of vision under oil-immersion lens) | G + c, + (1-9 bacteria per field of vision under oil-immersion lens) | G + c, + (1-9 bacteria per field of vision under oil-immersion lens) | G + b, ++ (About 10-99 bacteria per field of vision under oil-immersion lens) | G + b, +++ (About 100 bacteria or more per field vision under oil-immersion lens, even uncountable) | 6.4 | 6.2 |
| starch | G − c, − (No or less than one bacterium per field of version under oil-immersion lens) | G − c, − (No or less than one bacterium per field of version under oil-immersion lens) | G − b, ++ (About 10-99 bacteria per field of vision under oil-immersion lens) | G − b, ++ (About 10-99 bacteria per field of vision under oil-immersion lens) | G + c, + (1-9 bacteria per field of vision under oil-immersion lens) | G + c, + (1-9 bacteria per field of vision under oil-immersion lens) | G + b, ++ (About 10-99 bacteria per field of vision under oil-immersion lens) | G + b, ++ (About 10-99 bacteria per field of vision under oil-immersion lens) | 6.7 | 6.2 |
